Reference: US20100311759A1, “ANTIPARASITIC AGENT FOR FISH AND METHOD OF CONTROLLING PROLIFERATION OF FISH PARASITES” (NIPPON SUISAN KAISHA, LTD., priority 2007, published 2010)

Assays:
Cryptocaryon irritans [1] = experiment: Examples 3 and 4: oral administration of single inhibitors and a combination, body length of Cryptocaryon irritans on Pagrus major (FIG. 4); type: in vivo; conditions: 60 parasites per plot, P≦0.01
Text: During the rearing period, 1.4 liters/min. of seawater was supplied. […] After exposure, seven fish each were moved into six 100-liter aquariums. During the rearing period, 1.4 liters/min. of seawater was supplied.

Cryptocaryon irritans [2] = experiment: Example 1: oral administration against parasitism of Cryptocaryon irritans on Pagrus major (1); conditions: 50 mg trimethoprim/kg body weight/day orally three days; three days after the exposure
[3] = 60 mg/kg fish body weight/day for three days
[4] = 300 mg/kg fish body weight/day for three days

Compound	growth rate of parasites (body length as percentage of control plot), difference from control plot (Cryptocaryon irritans [1]; [3])	number of parasites (left gills, FIG. 1, control plot = one) (Cryptocaryon irritans [2])	growth rate of parasites (body length as percentage of control plot), difference from control plot (Cryptocaryon irritans [1]; [4])
COc1cc(Cc2cnc(N)nc2N)cc(OC)c1OC [trimethoprim]	statistically significant difference	tend to be large	–
COc1cc(NS(=O)(=O)c2ccc(N)cc2)ncn1 [sulfamonomethoxine]	–	–	statistically significant difference
COc1cc(NS(=O)(=O)c2ccc(N)cc2)nc(OC)n1 [sulfadimethoxine]	–	–	statistically significant difference
N=C(N)c1ccc(OCCCCCOc2ccc(C(=N)N)cc2)cc1.O=S(=O)(O)CCO.O=S(=O)(O)CCO [PMD, isethionic acid pentamidine salt]	statistically significant difference	–	–
Cc1nnc(NS(=O)(=O)c2ccc(N)cc2)s1 [sulfamethizole]	–	–	statistically significant difference
Cc1ccnc(NS(=O)(=O)c2ccc(N)cc2)n1 [sulfamerazine]	–	–	statistically significant difference
CN(Cc1cnc2nc(N)nc(N)c2n1)c1ccc(C(=O)N[C@@H](CCC(=O)O)C(=O)O)cc1 [methotrexate]	statistically significant difference	–	–
Cc1cc(NS(=O)(=O)c2ccc(N)cc2)nc(C)n1 [sulfisomidine]	–	–	statistically significant difference
sulfisozole	–	–	statistically significant difference
